Columns and labels:
[1] = system: MRSA in Raw 264.7 macrophage; test: Antibacterial activity for intracellular infection; type: cell-based; conditions: Raw 264.7 infected with S. aureus, pH 7.4 and 6.0, 1 day
Description: (§1) Antibacterial activity for intracellular infection. The antibacterial activity for intracellular infection was tested following the previous report. Briefly, macrophage Raw 264.7 cells were seeded in 96-well plate at a density of 1×10^4 cell/swell overnight and infected with MRSA or P. aeruginosa at a ratio of 10-20 bacteria per macrophage in FBS free RPMI 1640 medium. After 3 h incubation, the cells were washed and cultured in 1640 medium containing 10% FBS and 50 μg/mL gentamycin for one day to prevent the growth of extracellular bacteria. Then the macrophages were treated with free streptomycin or PDC for another day and lysed with Milli-Q water supplemented with 0.1% Triton-X. The cell lysates were serially diluted and the CFU in each well was determined by plating on MHB agar plates.

[2] = system: P. aeruginosa in Raw 264.7 macrophage; test: Antibacterial activity for intracellular infection; type: cell-based; conditions: Raw 264.7 infected with P. aeruginosa, pH 7.4 and 6.0, 1 day
Description: as §1

[3] = Streptomycin release kinetics (dialysis, HPLC); type: physicochemical
Description: Streptomycin release kinetics. […] The bags were put into the PBS buffers with the corresponding pH, and incubated in a 37° C. shaker. At different time intervals, 100 μL sample outside the dialysis bag was collected for HPLC analysis.

[4] = system: broad spectrum of microbes; test: MIC, broth microdilution, across the strains tested; type: cell-based; conditions: E. coli, MRSA, P. aeruginosa (FIGS. 3G-I)
Description: Bacterial strains. S. aureus Newman was kindly provided by Prof Douglas Weibel; E. coli ATCC25922, S. aureus ATCC 33591 and P. aeruginosa ATCC 27853 were kindly donated by Prof. David Andes. E. coli DH5a was purchased from Thermo Fisher. The bacteria above were grown in Mueller Hinton Broth (MHB) media (Criterion, Santa Maria, Calif., USA). M. smegmatis mc^2155 strain was kindly donated by Prof. Adel M. Talaat, and was grown in Middlebrook 7H9 broth (HiMedia, West Chester, Pa., USA).
Minimal inhibitory concentration (MIC) measurements. The MIC of the different treatments on various bacteria strains was determined using the broth microdilution method. Briefly, 100 μL of the respective broth media containing serial twofold dilutions of each compound was placed into a 96-well tissue culture plate. Each bacterial strain was taken from an exponentially growing culture and diluted to 5×10^6 CFU/mL. 10 μL of such microbial suspension was inoculated in each well of the plate, resulting in a final bacteria concentration of approximately 5×10^5 CFU/mL. The bacteria were cultured at 37° C. for 24 h and their growth were observed by reading the optical density (OD) at 600 nm. The MIC was determined as the treatment concentration at which no microbial growth was observed. […]

[5] = system: E. coli ATCC 25922; test: Checkerboard assay, FIC index; type: cell-based
Description: (§2) Fractional inhibitory concentration (FIC) measurement. The synergy between the cationic polymer and streptomycin was assessed by checkerboard assays. The two antibacterial components were mixed in a 96-well plate with serial two-dimensional dilutions. Bacteria were inoculated in each well of the plate and their growth, reflected by the OD600 value, were monitored. The synergy effect was evaluated by calculating the FIC index according to the formula below:
(§3) [formula] MICA^Comb and MICB^Comb indicate the MICs of the two components in combination. The interactions between the two components are defined according to standard criteria of considering FIC≤0.5 as synergistic; 0.5<FIC≤1 as additive; 1<FIC≤4 as indifference; and FIC>4 as antagonism.

[6] = system: P. aeruginosa ATCC 27853; test: Checkerboard assay, FIC index; type: cell-based
Description: as §2, §3

[7] = system: methicillin-resistant S. aureus (MRSA, ATCC 33591); test: Checkerboard assay, FIC index; type: cell-based
Description: as §2, §3

[8] = system: E. coli ATCC 25922; test: Evaluation of antibiotic resistance development (serial passaging); type: cell-based; conditions: sub-lethal dose (0.5 MIC)
Description: Evaluation of antibiotic resistance development. E. coli ATCC 25922 was employed to study the drug resistance development under sublethal dose treatments of free streptomycin, cationic polymer or the PDC. During a serial of passages, the MIC of each treatment was measured by the broth microdilution method as described above, and the bacteria were exposed to ½MIC at that particular passage. MIC for each passage was recorded and normalized to that of the first passage to determine the drug resistance enhancement.

[9] = system: P. aeruginosa ATCC 27853; test: Mouse lung infection model; type: in vivo, ICR mice
Description: Mouse lung infection model. […] In another experiment of monitoring the mice survival for the lung infection model, the P. aeruginosa infected mice were given 2 treatments (1 h and 8 h after the infection) and their survival was observed using Kaplan-Meier curves (n=5).

Hex-Cys-Cys-DET-strep-DMA [Neutralized PDC]
antibacterial efficacy on intracellular bacteria (CFU), in words [1]: enhanced the antibacterial efficacy | antibacterial efficacy on intracellular bacteria (CFU), in words [2]: enhanced the antibacterial efficacy | streptomycin release ([3]; pH 6.0, within 48 h): about 70% | streptomycin release ([3]; pH 7.4, at 48 h): about 20% | effect of pH (6.0 vs 7.4) on MIC, in words [4]: performed significantly better at pH 6.0 than at 7.4 | FICI of the two components in the PDC (tethered together) [5]: 0.362 | FICI of the two components in the PDC (tethered together) [6]: 0.306 | FICI of the two components in the PDC (tethered together) [7]: 0.475 | increase in MIC after 20 passages [8]: 2 fold | survival, in words ([9]; 2 i.v. injections (1 h and 8 h after the infection)): all of the PDC treated mice survived | bacterial burden in lungs, in words ([9]; single i.v. injection 1 h after infection, CFU per lung at 12 h): lowest bacterial burden in their lungs

— patent US11911406B2, “PH-responsive polymer-drug conjugates for enhanced antibacterial efficacy” (priority 2020, dated 2024)
